From patent US12577217B2, “15-PGDH inhibitor” (KYORIN Pharmaceutical Co., Ltd., priority 2019, dated 2026) come the findings set out here.

The assay deals with T1, recombinant human 15-PGDH (Homo sapiens, UniProt P15428).
T1 construct: purchased R&D Systems
T1 sequence (P15428 1-266): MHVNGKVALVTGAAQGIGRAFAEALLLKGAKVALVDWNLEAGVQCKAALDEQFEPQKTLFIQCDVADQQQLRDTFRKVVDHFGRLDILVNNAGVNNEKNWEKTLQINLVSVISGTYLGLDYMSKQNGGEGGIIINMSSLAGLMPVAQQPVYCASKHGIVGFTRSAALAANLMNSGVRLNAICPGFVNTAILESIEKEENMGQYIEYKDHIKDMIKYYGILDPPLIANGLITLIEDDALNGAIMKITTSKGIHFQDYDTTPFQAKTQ
The assay can be described thus: 15-PGDH enzyme inhibition test. It counts as biochemical. Conditions: 4 nM recombinant human 15-PGDH, 30 μM PGE2, 1 mM NAD+, 60 minutes after starting the reaction; read-out: IC50 Value. The gist of the method:
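4 nM recombinant human enzyme pre-incubated with compound 12 min at room temperature in 50 mM Tris-HCl pH 8.0 with 0.01% Tween 20 and 0.01% bovine gamma globulin. Reaction started with 30 μM PGE2 and 1 mM NAD+, read after 60 min by fluorescence (ex 340/em 440 nm). IC50 from concentration-response curve.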

For `Cn1nc2cc(N3CCOc4cc(C(=O)N5CCC(F)(F)CC5)cnc43)ccn2c1=O` [Example 8-26], the IC50 (in general, the midpoint of a concentration-inhibition curve) was less than 10 nM. As for `Cn1nc2cc(N3CCOc4cc(C(=O)N5CCC[C@H](F)C5)cnc43)ccn2c1=O` [Example 8-27], the IC50 is less than 10 nM. As for `C[C@H]1CCCCN1C(=O)c1cnc2c(c1)OCCN2c1ccn2c(=O)n(C)nc2c1` [Example 8-28], the IC50 is less than 10 nM.

Regarding `C[C@H]1CCCN1C(=O)c1cnc2c(c1)OCCN2c1ccn2c(=O)n(C)nc2c1` [Example 8-29], the IC50 is less than 10 nM. The figure for `Cn1nc2cc(N3CCOc4cc(C(=O)N5CC(F)(F)C5)cnc43)ccn2c1=O` [Example 8-30] is less than 10 nM.

With `C[C@@H]1CCCN(C(=O)c2cnc3c(c2)OCCN3c2ccn3c(=O)n(C)nc3c2)C1` [Example 8-31], the IC50 is less than 10 nM. The figure for `C[C@@H]1CCN(C(=O)c2cnc3c(c2)OCCN3c2ccn3c(=O)n(C)nc3c2)C1` [Example 8-32] is less than 10 nM; for `Cn1nc2cc(N3CCOc4cc(C(=O)N5CCC[C@@H](O)C5)cnc43)ccn2c1=O` [Example 8-33] it is less than 10 nM. The result for `C[C@H]1CCCN(C(=O)c2cnc3c(c2)OCCN3c2ccn3c(=O)n(C)nc3c2)C1` [Example 8-34] reads less than 10 nM; that for `C[C@H]1CCN(C(=O)c2cnc3c(c2)OCCN3c2ccn3c(=O)n(C)nc3c2)C1` [Example 8-35], less than 10 nM. The result for `COC(=O)C1CCCN(C(=O)c2cnc3c(c2)OCCN3c2ccn3c(=O)n(C)nc3c2)C1` (centres unmarked) [Example 8-36] reads less than 10 nM. As for `COC(=O)C1CN(C(=O)c2cnc3c(c2)OCCN3c2ccn3c(=O)n(C)nc3c2)C1` [Example 8-37], the IC50 is less than 10 nM.

For the compound `Cn1nc2cc(N3CCOc4cc(C(=O)N5CCC[C@H](O)C5)cnc43)ccn2c1=O` [Example 8-38], the IC50 is less than 10 nM.

Turning to `Cn1nc2cc(N3CCOc4cc(C(=O)N5C[C@@H]6CC[C@@H](C6)C5)cnc43)ccn2c1=O` [Example 8-39], the IC50 is less than 10 nM. Take `Cn1nc2cc(N3CCOc4cc(C(=O)N5C[C@H]6C[C@@H](C5)C6)cnc43)ccn2c1=O` [Example 8-40]: the half-inhibitory concentration (IC50) was less than 10 nM. Turning to `C[C@@H]1C[C@H](C)CN(C(=O)c2cnc3c(c2)OCCN3c2ccn3c(=O)n(C)nc3c2)C1` [Example 8-41], the IC50 was less than 10 nM. The figure for `Cn1nc2cc(N3CCOc4cc(C(=O)N5CCCC6(CC6)C5)cnc43)ccn2c1=O` [Example 8-42] is less than 10 nM.

Turning to `CCC1CCCN(C(=O)c2cnc3c(c2)OCCN3c2ccn3c(=O)n(C)nc3c2)C1` (centres unmarked) [Example 8-43], the IC50 is less than 10 nM. The result for `CC1CCN(C(=O)c2cnc3c(c2)OCCN3c2ccn3c(=O)n(C)nc3c2)CC1` [Example 8-44] reads less than 10 nM; that for `Cn1nc2cc(N3CCOc4cc(C(=O)N5CCC6(CC5)CC6)cnc43)ccn2c1=O` [Example 8-45], less than 10 nM; that for `Cn1nc2cc(N3CCOc4cc(C(=O)N5CCC6CC6C5)cnc43)ccn2c1=O` (centres unmarked) [Example 8-46], less than 10 nM.

With `CC1CN(C(=O)c2cnc3c(c2)OCCN3c2ccn3c(=O)n(C)nc3c2)CCC1(F)F` (centres unmarked) [Example 8-47], the IC50 is less than 10 nM.

In the case of `Cn1nc2cc(N3CCOc4cc(C(=O)N5CCCC(C)(F)C5)cnc43)ccn2c1=O` (centres unmarked) [Example 8-48], the half-inhibitory concentration (IC50) is less than 10 nM. Take `Cn1nc2cc(N3CCOc4cc(C(=O)N5CCOC6(CC6)C5)cnc43)ccn2c1=O` [Example 8-49]: the IC50 is less than 10 nM. In the case of `Cn1nc2cc(N3CCOc4cc(C(=O)N5CC(C)(F)C5)cnc43)ccn2c1=O` [Example 8-50], the IC50 is less than 10 nM. The result for `Cn1nc2cc(N3CCOc4cc(C(=O)N5CCCC6(CCO6)C5)cnc43)ccn2c1=O` (centres unmarked) [Example 8-51] reads 10 to 100 nM; that for `Cn1nc2cc(N3CCOc4cc(C(=O)N5CCCC6(COC6)C5)cnc43)ccn2c1=O` [Example 8-52], 10 to 100 nM. The figure for `Cn1nc2cc(N3CCOc4nc(C(=O)N5CCCCC5)ccc43)ccn2c1=O` [Example 8-53] is less than 10 nM; for `Cn1nc2cc(N3CCOc4cc(C(=O)N5CCCC6CC65)cnc43)ccn2c1=O` (centres unmarked) [Example 8-54] it is less than 10 nM.
